Measured values from ChEMBL document CHEMBL1201862, “PubChem BioAssay data set” (2004).
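Briefly, cells in 96-well plates were exposed to five compound concentrations for 48 h, and endpoints were estimated by linear interpolation. GI50: concentration for 50% inhibition of growth.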 Active and inactive are the calls of the source. Rule as the data show it: active = GI50 up to about 1.1 µM and inactive = higher.

Key:
Assay in all cases: NCI-60 cell line screen, 48 h
CCRF-CEM = test system: CCRF-CEM
DU-145 = test system: DU-145
HCC 2998 = test system: HCC 2998
HCT-15 = test system: HCT-15
HL-60 = test system: HL-60
KM12 = test system: KM12
MCF7 = test system: MCF7
MDA-MB-435 = test system: MDA-MB-435
NCI-H226 = test system: NCI-H226
NCI-H460 = test system: NCI-H460
NCI-H522 = test system: NCI-H522
NCI/ADR-RES = test system: NCI/ADR-RES
RXF 393 = test system: RXF 393
SK-OV-3 = test system: SK-OV-3
SN12C = test system: SN12C
SNB-75 = test system: SNB-75
SW-620 = test system: SW-620
Malme-3M = test system: Malme-3M
SK-MEL-2 = test system: SK-MEL-2
PC-3 = test system: PC-3

Row | SMILES | GI50 (CCRF-CEM) | GI50 (DU-145) | GI50 (HCC 2998) | GI50 (HCT-15) [µM] | GI50 (HL-60) | GI50 (KM12) | GI50 (MCF7) | GI50 (MDA-MB-435) | GI50 (NCI-H226) | GI50 (NCI-H460) | GI50 (NCI-H522) | GI50 (NCI/ADR-RES) | GI50 (RXF 393) | GI50 (SK-OV-3) | GI50 (SN12C) | GI50 (SNB-75) | GI50 (SW-620) | GI50 (Malme-3M) | GI50 (SK-MEL-2) | GI50 (PC-3)
1 | O=C(C/C=C/c1ccccc1)c1ccccc1 | 22.2 µM (inactive) | 16 µM (inactive) | 18.3 µM (inactive) | 18.8 | 16.1 µM (inactive) | 11.1 µM (inactive) | 15 µM (inactive) | 18 µM (inactive) | 29.5 µM (inactive) | 19.9 µM (inactive) | 16.9 µM (inactive) | 15.3 µM (inactive) | 15.8 µM (inactive) | 49.5 µM (inactive) | 24.3 µM (inactive) | 20.6 µM (inactive) | 31.2 µM (inactive) |  |  | 
2 | Cc1cc(O)c2c(c1)C(=O)c1c(c(O)cc(O)c1-c1c(O)cc(O)c3c1C(=O)c1cc(C)cc(O)c1C3=O)C2=O [SKYRIN] | 7.6 µM (inactive) |  | 11.4 µM (inactive) | 8.61 | 7.11 µM (inactive) | 9.08 µM (inactive) | 15 µM (inactive) |  | 3.07 µM (inactive) | 9.08 µM (inactive) | 17.1 µM (inactive) | 35.2 µM (inactive) | 19.3 µM (inactive) | 32.4 µM (inactive) | 10.6 µM (inactive) | 15.8 µM (inactive) | 14.4 µM (inactive) | 15 µM (inactive) | 11.5 µM (inactive) | 
3 | O=C(NN=C1NCCCCN1)Nc1ccc(Cl)cc1 | 47.2 µM (inactive) |  | > 100 µM (inactive) | > 100 | 26.5 µM (inactive) | > 100 µM (inactive) | > 100 µM (inactive) | > 100 µM (inactive) | 85.1 µM (inactive) | > 100 µM (inactive) | > 100 µM (inactive) | > 100 µM (inactive) | > 100 µM (inactive) | > 100 µM (inactive) |  | 31.6 µM (inactive) | > 100 µM (inactive) | > 100 µM (inactive) | > 100 µM (inactive) | 73.5 µM (inactive)
4 | COc1ccc(OC)c2sc(N3C(=O)/C(=C/c4ccc(N(C)C)cc4)N=C3c3ccccc3)nc12 | 6.04 µM (inactive) | > 100 µM (inactive) | > 100 µM (inactive) | 59.2 | 20.9 µM (inactive) | 52 µM (inactive) | 22.3 µM (inactive) | 31.4 µM (inactive) |  | 92.9 µM (inactive) |  | > 100 µM (inactive) |  | > 100 µM (inactive) | 52.5 µM (inactive) | 80.5 µM (inactive) | 49.8 µM (inactive) |  | 36.9 µM (inactive) | 33 µM (inactive)
5 | CCN(CC(=O)O)C(=O)c1cccnc1 |  | > 100 µM (inactive) | > 100 µM (inactive) | > 100 |  | > 100 µM (inactive) |  | > 100 µM (inactive) |  | > 100 µM (inactive) | > 100 µM (inactive) | > 100 µM (inactive) | > 100 µM (inactive) |  | > 100 µM (inactive) | > 100 µM (inactive) | > 100 µM (inactive) | > 100 µM (inactive) | > 100 µM (inactive) | > 100 µM (inactive)
6 | Cc1nc(C)c(C(=O)NNC(=O)C[N+](C)(C)C)cc1C(=O)NNC(=O)C[N+](C)(C)C |  | > 100 µM (inactive) | > 100 µM (inactive) | > 100 | 62.1 µM (inactive) | > 100 µM (inactive) | > 100 µM (inactive) | > 100 µM (inactive) | > 100 µM (inactive) | > 100 µM (inactive) |  | > 100 µM (inactive) | > 100 µM (inactive) | > 100 µM (inactive) | > 100 µM (inactive) | > 100 µM (inactive) | > 100 µM (inactive) |  | > 100 µM (inactive) | 
7 | O=C(c1ccc2ccccc2c1O)N1CCCCC1 | > 100 µM (inactive) | > 100 µM (inactive) | > 100 µM (inactive) | > 100 | 68.9 µM (inactive) | > 100 µM (inactive) | > 100 µM (inactive) | > 100 µM (inactive) | > 100 µM (inactive) | 80.7 µM (inactive) |  | 39 µM (inactive) | > 100 µM (inactive) | > 100 µM (inactive) |  | > 100 µM (inactive) | > 100 µM (inactive) |  | > 100 µM (inactive) | > 100 µM (inactive)
8 | COc1cc2c(cc1OC)C(=O)/C(=C/c1ccc(N(C)C)cc1)CC2 | 9.77 µM (inactive) | > 10 µM (inactive) | > 10 µM (inactive) | > 10 | > 10 µM (inactive) | > 10 µM (inactive) | > 10 µM (inactive) | > 10 µM (inactive) | > 10 µM (inactive) | > 10 µM (inactive) |  | > 10 µM (inactive) | > 10 µM (inactive) | > 10 µM (inactive) | > 10 µM (inactive) |  | > 10 µM (inactive) | > 10 µM (inactive) | 0.962 µM (active) | > 10 µM (inactive)
